According to US20250345512A1, “COMBINATION SODIUM-GLUCOSE COTRANSPORTER INHIBITOR (SGLTI) INSULIN THERAPY FOR GLYCEMIC CONTROL IN TYPE 1 DIABETES” (University of Virginia Patent Foundation, priority 2022, published 2025):

System: participants with T1D
Assay: Randomized crossover clinical trial (NCT04201496): CGM glycemic outcomes with 5 mg daily empagliflozin adjunctive to AID (Control-IQ, CIQ) or PLGS (Basal-IQ, BIQ)
Assay type: in vivo, human
Conditions: for Difference (95% CI): daytime glucose % Time in range of 70 to 180 mg/dL: adjusted for pre-randomization HbA1c
Procedure: FIG. 2 presents a study analysis relative to baseline, control IQ (CIQ) (e.g., AID), and basal IQ (BIQ) (e.g., PLGS) implementation, according to investigation that is demonstrable of one or more embodiments herein. Therein, an experimental arm (G1, G2) providing an initial daily dose of 5 mg empagliflozin (EMPA) is depicted against a control arm (G3, G4) without such dosing (NOEMPA). Relative characteristics of the analysis are provided below.
Study Design: A single-center, randomized, controlled, unblinded, crossover clinical trial (NCT04201496) compared four parallel groups, two groups in the experimental arm (EMPA) with 5 mg daily empagliflozin as adjunctive therapy to PLGS or AID, and two groups in the control arm (NOEMPA) with no drug and with a PLGS system (Basal-IQ, Tandem Diabetes Care) or AID system (Control-IQ, Tandem Diabetes Care). The groups within each arm differed from one another in the order of the randomly assigned crossover technological intervention, relative to PLGS being followed by AID or AID being followed by PLGS, respectively (FIG. 4). The study protocol was approved by the University of Virginia Institutional Review Board (IRB). An investigational device exemption (IDE), including an investigational new drug (IND) application for empagliflozin, was approved by the FDA. Safety aspects were overseen by an external data and safety monitoring board (DSMB). Participants: Major inclusion criteria were T1D treated with insulin for at least one year, use of continuous subcutaneous insulin infusion therapy for at least six months, age 18-65 yrs., no use of glucose lowering agents other than insulin, and Hb1Ac<9% (75 mmol/mol). Randomization: A (1:1:1:1) randomization assigned participants to either Group 1, AID-EMPA (4 weeks) followed by PLGS-EMPA (2 weeks), Group 2, PLGS-EMPA (2 weeks) followed by AID-EMPA (4 weeks), Group 3, AID-NOEMPA (4 weeks) followed by PLGS-NOEMPA (2 weeks), and Group 4, PLGS-NOEMPA (2 weeks) followed by AID-NOEMPA (4 weeks). Procedures: After confirmation of eligibility, participants underwent study equipment and medication training (experimental arm), or only study equipment training (control arm). Study equipment consisted of Dexcom G6® CGM (Dexcom Inc., San Diego, CA), Contour® Next blood glucose (Ascensia Diabetes Care, Basel, Switzerland) and Precision Xtra® blood ketone meters (Abbott, Alameda, CA) with their respective test strips; infusion sets, and the use of the t:slim X2™ insulin pump with Basal-IQ or Control-IQ technologies (Tandem Diabetes Care, San Diego, CA), according to randomization. […] Participants in the experimental arm were asked to record two days of baseline ketone values before initiating the use of the study drug. Thereafter, participants were directed to use the study CGM with EMPA for 1-2 weeks. A tolerance to the medication was assessed prior to the starting of the next study phase, including adherence to the protocol, ketone testing 2-4 times per day with monitored values not greater than 0.6 mmol/L on at least two successive occasions (the first testing upon waking in a fasted state), no adverse events relating to perineal infection or symptomatic postural hypotension, and no evidence of significant hypoglycemia <54 mg/dL, or any other listed adverse effects of the medication. Participants in the control arm were directed to use the study CGM for 1-2 weeks. Sample Size: The total sample size was projected to be 40 participants, assuming 1) 1:1:1:1 randomization; 2) 90% power and type 1 error a=0.01, further reinforcing the feasibility of hierarchical analyses. The projected recruitment sample was n=50, to accommodate up to 20% attrition rate without sacrificing statistical power. Analytical methods: For the primary analysis, TIR during the day in the 4-week AID period was compared between the two EMPA groups versus the two NOEMPA groups using a linear mixed-effects regression model while adjusting for pre-randomization HbAlc and age. […]

[1] = EMPA minus NOEMPA on same insulin system, adjusted for HbA1c
[2] = daytime (7:00-23:00), head prints CIQ-EMPA vs. BIQ-NOEMPA
[3] = daytime (7:00-23:00), CIQ-EMPA vs. BIQ-NOEMPA, BIQ-EMPA vs. CIQ-NOEMPA
[4] = daytime (7:00-23:00), CIQ-EMPA vs. CIQ-NOEMPA, BIQ-EMPA vs. BIQ-NOEMPA
[5] = daytime (7:00-23:00), n = 16, mean ± SD
[6] = daytime (7:00-23:00), n = 16, median (IQR)
[7] = overall, head prints CIQ-EMPA vs. BIQ-NOEMPA

In the case of `OC[C@H]1O[C@@H](c2ccc(Cl)c(Cc3ccc(O[C@H]4CCOC4)cc3)c2)[C@H](O)[C@@H](O)[C@@H]1O` [CIQ-EMPA, empagliflozin], the “24/7 HBGI - median (IQR)” value (24/7, n = 17) is reported as 2.7(2-4.4), the “24/7 LBGI - median (IQR)” value (24/7, n = 17) is reported as 0.5(0.4-0.6) and the “24/7 glucose level <70 mg/dL (<3.9 mmol/L) - median % time (IQR)” value (24/7, n = 17) is reported as 1.1(0.5-1.5) %. For the same compound, the “24/7 glucose level <70 mg/dL (<3.9 mmol/L) - median % time (IQR)” value (24/7, n = 17, listed as AID-EMPA) was 1.1(0.5-1.5) %, the “24/7 Mean glucose level -” value (24/7, n = 17, mean ± SD) was 137 ± 19 mg/dL and the “24/7 Mean glucose level -” value (24/7, n = 17, mean ± SD, listed as AID-EMPA) was 137 mg/dL. The “daytime TIR mean adjusted difference, amounting to hours per day” value (AID-EMPA vs AID-NOEMPA, daytime 7:00 to 23:00 h) was 1.6 hours per day, the “Difference (95% CI): 24/7 HBGI” value [1] was −2.5(−5.3 to 0.2) and the “Difference (95% CI): 24/7 LBGI” value [1] was 0.06(−0.4 to 0.5). The “Difference (95% CI): 24/7 Mean glucose level” value [1] was −17.3(−35.4 to 0.8) mg/dL, the “Difference (95% CI): 24/7 glucose level <70 mg/dL % time” value [1] was −1.1(−3.2 to 0.9) percentage points and the “Difference (95% CI): Daytime CGM CV” value [1] was −3.3(−6.1 to −0.5) %. The “Difference (95% CI): Daytime CGM SD” value [1] was −9.3(−17.8 to −0.93) mg/dL, the “Difference (95% CI): 24/7 glucose level <70 mg/dL % time” value (EMPA minus NOEMPA on same insulin system, adjusted for HbA1c, listed as AID-EMPA) was −1.1 percentage points and the “Difference (95% CI): daytime glucose % Time in range of 70 to 180 mg/dL” value (EMPA minus NOEMPA on same insulin system) was 9.9(0.6 to 19.1) percentage points. For the same compound, the “Difference (95% CI): daytime glucose % Time in range of 70 to 180 mg/dL” value (EMPA minus NOEMPA on same insulin system, listed as AID-EMPA) was “+9.9 percentage points”, the “Primary: daytime glucose % Time in range of 70 to 180 mg/dL (3.9-10.0 mmol/L)” value (daytime 7:00 to 23:00 h, n = 17, mean ± SD) was 81 ± 10% and the “Primary: daytime glucose % Time in range of 70 to 180 mg/dL (3.9-10.0 mmol/L)” value (daytime 7:00 to 23:00 h, n = 17, mean ± SD, listed as AID-EMPA) was 81+10%. For the same compound, the “Difference (95% CI): % CGM time 70-140 mg/dL (<3.9-7.8 mmol/L)” value [2] was −1.4 percentage points, the “Difference (95% CI): % CGM time <60 mg/dL (<3.3 mmol/L)” value (shortened to “Difference (95% CI) … (<3.3 mmol/L)”) [2] was −0.5 percentage points and the “Difference (95% CI): % CGM time >180 mg/dL (>10.0 mmol/L)” value (“Difference (95% CI) … (>10.0 mmol/L)” for short) [2] was −0.8 percentage points. For the same compound, the “Difference (95% CI): % CGM time >250 mg/dL (>13.9 mmol/L)” value (shortened to “Difference (95% CI) … (>13.9 mmol/L)”) [2] was −1.6 percentage points, the “Difference (95% CI): % CGM time >300 mg/dL (>16.7 mmol/L)” value (“Difference (95% CI) … (>16.7 mmol/L)” below) [2] was −0.9 percentage points and the “Difference (95% CI): CGM HBGI” value [2] was −6.3. The “Difference (95% CI): CGM LBGI” value [2] was −0.3, the “Difference (95% CI): Mean CGM glucose” value [2] was 0.2 mg/dL and the “Difference (95% CI): % CGM time <70 mg/dL (<3.9 mmol/L)” value (daytime (7:00-23:00), head prints CIQ-EMPA vs. BIQ-NOEMPA, listed as AID-EMPA) was −1 percentage points. For the same compound, the “Difference (95% CI): % CGM time 70-140 mg/dL (<3.9-7.8 mmol/L)” value [3] was 16.2 percentage points, the “Difference (95% CI) … (<3.3 mmol/L)” value [3] was −0.6 percentage points and the “Difference (95% CI): % CGM time <70 mg/dL (<3.9 mmol/L)” value [3] was −0.7 percentage points. For the same compound, the “Difference (95% CI) … (>10.0 mmol/L)” value [3] was −17.6 percentage points, the “Difference (95% CI) … (>13.9 mmol/L)” value [3] was −9.2 percentage points and the “Difference (95% CI) … (>16.7 mmol/L)” value [3] was −3.6 percentage points. For the same compound, the “Difference (95% CI): CGM HBGI” value [3] was −4.4, the “Difference (95% CI): CGM LBGI” value [3] was 0 and the “Difference (95% CI): CGM SD” value [3] was -15.5 mg/dL. The “Difference (95% CI): Mean CGM glucose” value [3] was -23.6 mg/dL, the “Difference (95% CI): % CGM time <50 mg/dL (<2.8 mmol/L)” value [4] was −0.2 percentage points and the “Difference (95% CI) … (<3.3 mmol/L)” value [4] was −0.7 percentage points. For the same compound, the “Difference (95% CI) … (>10.0 mmol/L)” value [4] was −10.3 percentage points, the “Difference (95% CI) … (>13.9 mmol/L)” value [4] was −3.8 percentage points and the “Difference (95% CI) … (>16.7 mmol/L)” value [4] was −1.3 percentage points. The “Difference (95% CI): CGM CV (%)” value [4] was −3.3%, the “Difference (95% CI): CGM HBGI” value [4] was −2.2 and the “Difference (95% CI): CGM LBGI” value [4] was 0. For the same compound, the “Difference (95% CI): CGM SD” value [4] was -9.3 mg/dL, the “Difference (95% CI): Mean CGM glucose” value [4] was -14.6 mg/dL and the “% CGM time 70-140 mg/dL (3.9-7.8 mmol/L)” value [5] was 56.7 ± 13.4%. The “% CGM time 70-180 mg/dL (3.9-10.0 mmol/L)” value [5] was 80.6 ± 10.5%, the “CGM CV (%)” value [5] was 30.4 ± 3.5% and the “CGM SD” value [5] was 42.6 ± 9.7 mg/dL. For the same compound, the “Mean CGM glucose” value [5] was 139 ± 19 mg/dL, the “% CGM time <50 mg/dL (<2.8 mmol/L)” value [6] was 0(0-0.1) % and the “% CGM time <60 mg/dL (<3.3 mmol/L)” value [6] was 0.4(0-0.5) %. For the same compound, the “% CGM time <70 mg/dL (<3.9 mmol/L)” value [6] was 1.2(0.6-1.7) %, the “% CGM time >180 mg/dL (>10.0 mmol/L)” value [6] was 15.8(6.2-26) % and the “% CGM time >250 mg/dL (>13.9 mmol/L)” value [6] was 1.2(0.4-3.7) %. The “% CGM time >300 mg/dL (>16.7 mmol/L)” value [6] was 0(0-0.6) %, the “CGM HBGI” value [6] was 3.4(1.9-5.5) and the “CGM LBGI” value [6] was 0.5(0.4-0.6). For the same compound, the “Daytime CGM CV - %” value (daytime, n = 17, mean ± SD) was 30.4 ± 3.5%, the “Daytime CGM SD -” value (daytime, n = 17, mean ± SD) was 42.6 ± 9.8 mg/dL and the “Difference: CGM HBGI” value [7] was −1.1. For the same compound, the “Difference: CGM LBGI” value [7] was −0.3 and the “Difference: % CGM time <70 mg/dL (<3.9 mmol/L)” value (overall, head prints CIQ-EMPA vs. BIQ-NOEMPA, listed as AID-EMPA) was −1.2 percentage points.
